The values that follow come from patent US20220017512A1 (SHANGHAI ENNOVABIO PHARMACEUTICALS CO., LTD., priority 2018, published 2022).

Counter-ions that a name gives are not always drawn.

Type in all cases: biochemical
One experiment has as its target T1, Recombinant human TRKA (Homo sapiens, UniProt P04629).
T1 construct: purchased Carna Biosciences
As to the kind of experiment: In vitro activity test on TRKA kinase (HTRF KinEASE TK). The conditions noted are these: 14.68 μM ATP, 40 min. The method in brief:
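Reaction: 0.2 ng/μL TRKA, 1 μM biotinylated TK substrate, 14.68 μM ATP, 5 mM MgCl2, 1 mM DTT, 1% DMSO, 40 min at room temperature. Compounds tested at 1 μM to 0.05 nM (10-point, 3-fold, duplicate). HTRF 665/620 ratio converted to % inhibition versus no-compound control; IC50 by 4-parameter fit.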
A general note: TR-FRET usually uses a lanthanide donor and a delayed reading to cut background.

A further experiment deals with T2, Recombinant human TRKB (Homo sapiens, UniProt Q16620).
T2 construct: purchased Carna Biosciences
T2 sequence (Q16620 32-822): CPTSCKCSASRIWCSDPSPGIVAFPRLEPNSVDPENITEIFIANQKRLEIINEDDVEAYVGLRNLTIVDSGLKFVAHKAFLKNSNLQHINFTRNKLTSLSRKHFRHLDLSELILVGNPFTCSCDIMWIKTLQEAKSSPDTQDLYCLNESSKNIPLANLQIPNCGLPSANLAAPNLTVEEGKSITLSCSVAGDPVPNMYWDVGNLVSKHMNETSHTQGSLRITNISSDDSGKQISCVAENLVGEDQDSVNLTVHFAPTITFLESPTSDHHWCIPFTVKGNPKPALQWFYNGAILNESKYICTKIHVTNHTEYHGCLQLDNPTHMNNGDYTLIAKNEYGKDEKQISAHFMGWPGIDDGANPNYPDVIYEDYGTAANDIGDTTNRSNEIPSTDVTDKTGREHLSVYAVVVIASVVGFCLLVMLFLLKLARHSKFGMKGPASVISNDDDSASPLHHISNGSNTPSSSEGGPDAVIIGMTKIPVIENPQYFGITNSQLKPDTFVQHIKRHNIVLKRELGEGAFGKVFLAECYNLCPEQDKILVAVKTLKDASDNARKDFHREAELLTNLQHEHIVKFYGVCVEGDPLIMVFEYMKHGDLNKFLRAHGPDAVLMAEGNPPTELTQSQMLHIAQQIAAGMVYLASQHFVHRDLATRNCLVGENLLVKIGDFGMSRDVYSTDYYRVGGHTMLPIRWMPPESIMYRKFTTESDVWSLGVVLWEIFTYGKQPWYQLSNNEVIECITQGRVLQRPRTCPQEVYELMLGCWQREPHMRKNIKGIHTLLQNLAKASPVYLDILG
Briefly: In vitro activity test on TRKB kinase (HTRF KinEASE TK). The conditions noted are these: 4.77 μM ATP, 50 min. The method in brief:
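Recombinant human TRKB (0.037 ng/μL) phosphorylated 1 μM biotinylated TK substrate at 4.77 μM ATP, 5 mM MgCl2, 1% DMSO, 50 min at room temperature; compounds 1 μM–0.05 nM. HTRF KinEASE detection overnight; 665/620 ratio converted to inhibition and IC50 from 4-parameter fit.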

The next experiment deals with T3, Recombinant human TRKC (Homo sapiens, UniProt Q16288).
T3 construct: purchased Carna Biosciences
T3 sequence (Q16288 32-839): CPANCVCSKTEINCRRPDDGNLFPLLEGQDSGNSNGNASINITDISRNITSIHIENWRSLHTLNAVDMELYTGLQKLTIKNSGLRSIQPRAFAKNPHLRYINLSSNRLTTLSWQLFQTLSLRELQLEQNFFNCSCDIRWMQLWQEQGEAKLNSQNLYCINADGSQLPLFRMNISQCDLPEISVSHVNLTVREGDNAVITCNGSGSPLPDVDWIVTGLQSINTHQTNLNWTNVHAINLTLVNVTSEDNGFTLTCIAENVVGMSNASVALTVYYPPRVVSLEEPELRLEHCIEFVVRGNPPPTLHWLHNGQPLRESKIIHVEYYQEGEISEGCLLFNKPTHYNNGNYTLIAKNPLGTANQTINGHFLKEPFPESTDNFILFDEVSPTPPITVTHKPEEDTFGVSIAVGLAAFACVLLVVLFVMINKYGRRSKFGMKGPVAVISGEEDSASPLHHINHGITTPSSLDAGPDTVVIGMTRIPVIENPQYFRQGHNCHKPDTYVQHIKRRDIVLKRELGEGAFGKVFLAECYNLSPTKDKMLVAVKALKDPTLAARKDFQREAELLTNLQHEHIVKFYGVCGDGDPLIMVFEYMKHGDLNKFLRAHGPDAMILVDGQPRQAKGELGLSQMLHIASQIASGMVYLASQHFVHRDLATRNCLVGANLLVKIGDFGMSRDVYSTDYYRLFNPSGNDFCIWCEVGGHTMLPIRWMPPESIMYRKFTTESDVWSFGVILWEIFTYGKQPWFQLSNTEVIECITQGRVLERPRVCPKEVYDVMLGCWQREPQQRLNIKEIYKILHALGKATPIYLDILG
As to the kind of experiment: In vitro activity test on TRKC kinase (HTRF KinEASE TK). Conditions: 25.64 μM ATP, 40 min. The method in brief: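 Recombinant human TRKC (0.037 ng/μL) with 1 μM biotinylated TK substrate, 25.64 μM ATP, 5 mM MgCl2, 1 mM DTT, 40 min at room temperature; compound 1 μM to 0.05 nM, 1% DMSO. HTRF 665/620 ratio after overnight detection; IC50 from 4-parameter fit.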

Experiment [1] has as its target T4, recombinant human TRKA (G595R) (Homo sapiens, UniProt P04629, G595R).
T4 construct: purchased SignalChem
As to the kind of experiment: In vitro activity test on mutant TRKA (G595R) (HTRF KinEASE TK). The conditions noted are these: 4.5 μM ATP, 30 min. A digest of the protocol: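 HTRF KinEASE TK format: 0.12 ng/μL recombinant TRKA (G595R), 1 μM biotinylated TK substrate, 4.5 μM ATP, 5 mM MgCl2, 1 mM DTT, 1% DMSO, 30 min at room temperature; detection overnight. IC50 from 10-point 4-fold series (1 μM to 0.004 nM, duplicates), 665/620 ratio, 4-parameter fit.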

The target in experiment [2] is T5, recombinant human TRKA (G667C) (Homo sapiens, UniProt P04629, G667C).
T5 construct: purchased SignalChem
T5 sequence (P04629 33-796 G667C): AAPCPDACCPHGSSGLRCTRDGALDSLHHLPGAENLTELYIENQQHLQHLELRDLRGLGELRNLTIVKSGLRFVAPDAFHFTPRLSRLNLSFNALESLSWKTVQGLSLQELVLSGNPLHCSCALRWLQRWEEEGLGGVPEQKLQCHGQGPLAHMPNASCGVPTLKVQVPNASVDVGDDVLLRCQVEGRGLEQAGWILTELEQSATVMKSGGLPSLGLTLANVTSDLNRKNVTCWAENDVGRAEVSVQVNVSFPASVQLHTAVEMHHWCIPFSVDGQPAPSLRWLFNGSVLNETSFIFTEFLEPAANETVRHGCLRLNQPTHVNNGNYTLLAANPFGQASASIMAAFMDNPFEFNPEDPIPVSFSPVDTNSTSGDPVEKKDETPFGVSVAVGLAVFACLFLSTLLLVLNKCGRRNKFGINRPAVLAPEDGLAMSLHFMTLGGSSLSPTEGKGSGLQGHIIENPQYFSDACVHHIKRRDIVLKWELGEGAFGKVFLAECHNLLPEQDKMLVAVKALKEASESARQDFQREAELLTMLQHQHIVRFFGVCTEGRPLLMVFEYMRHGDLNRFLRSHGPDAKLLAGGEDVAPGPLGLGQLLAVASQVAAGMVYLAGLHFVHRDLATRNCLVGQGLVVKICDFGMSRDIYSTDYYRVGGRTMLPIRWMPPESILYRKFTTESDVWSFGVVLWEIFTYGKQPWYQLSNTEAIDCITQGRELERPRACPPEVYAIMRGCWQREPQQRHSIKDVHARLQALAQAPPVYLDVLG
Briefly: In vitro activity test on mutant TRKA (G667C) (HTRF KinEASE TK). The conditions noted are these: 5.5 μM ATP, 30 min. The method in brief:
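HTRF KinEASE TK format with recombinant human TRKA G667C (0.026 ng/μL), 1 μM biotinylated TK substrate, 5.5 […] ATP, 5 mM MgCl2, 1 mM DTT, 1% DMSO; 30 min at room temperature. Detection overnight; 665/620 ratio gives % inhibition, IC50 from 4-parameter fit over 10 doses (1 μM–0.004 nM).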

T1 sequence (P04629 33-796): as the sequence (P04629 33-796 G667C) above, with C635G counted along it
T4 sequence (P04629 33-796 G595R): as the sequence (P04629 33-796 G667C) above, with G563R, C635G counted along it

In general, IC50 refers to the concentration needed to halve the response being measured. On to `Fc1ccc(F)c([C@H]2C[C@H](F)CN2c2ccc3ncc(Cl)c(-c4cnc(C5CCNCC5)s4)c3n2)c1` [Example 50, 5-(3-Chloro-6-((2R,4S)-2-(2,5-difluorophenyl)-4-fluoropyrrolidin-1-yl)-1,5-naphthyridin-4-yl)-2-(piperidin-4-yl)thiazole], for which the IC50 was less than 1 nM on Recombinant human TRKA; less than 10 nM on Recombinant human TRKB; less than 10 nM on Recombinant human TRKC; less than 10 nM in experiment [1]; less than 10 nM in experiment [2].

Take `Fc1ccc(F)c([C@H]2C[C@H](F)CN2c2ccc3ncc(Cl)c(-c4noc(C5CCNCC5)n4)c3n2)c1` [Example 51, 3-(3-Chloro-6-((2R,4S)-2-(2,5-difluorophenyl)-4-fluoropyrrolidin-1-yl)-1,5-naphthyridine-4-yl)-5-(piperidin-4-yl)-1,2,4-oxadiazole]: the 50% inhibitory concentration (IC50) (at Recombinant human TRKA; on Recombinant human TRKB; at Recombinant human TRKC; in experiment [1]; in experiment [2]) was less than 1 nM in each case.

In the case of `Fc1ccc(F)c([C@H]2C[C@H](F)CN2c2ccc3ncc(Cl)c(-c4cnn([C@@H]5CCCNC5)c4)c3n2)c1` [Example 54, 7-chloro-2-((2R,4S)-2-(2,5-difluorophenyl)-4-fluoropyrrolidin-1-yl)-8-(1-((R)-piperidin-3-yl)-1H-pyrazol-4-yl)-1,5-naphthyridine], the IC50 (on Recombinant human TRKA; at Recombinant human TRKB; on Recombinant human TRKC; in experiment [1]; in experiment [2]) was less than 10 nM throughout.

With `Fc1ccc(F)c([C@H]2C[C@H](F)CN2c2ccc3ncc(Cl)c(-c4cnn([C@@H]5CCNC5)c4)c3n2)c1` [Example 56, 7-chloro-2-((2R,4S)-2-(2,5-difluorophenyl)-4-fluoropyrrolidin-1-yl)-8-(1-((R)-pyrrolidin-3-yl)-1H-pyrazol-4-yl)-1,5-naphthyridine], the IC50 at Recombinant human TRKA was less than 1 nM; on Recombinant human TRKB, less than 10 nM; on Recombinant human TRKC, less than 1 nM; in experiment [1] it was less than 10 nM; in experiment [2], less than 10 nM.

In the case of `Fc1ccc(F)c([C@H]2C[C@H](F)CN2c2ccc3ncc(Cl)c(-c4cnn([C@H]5CCNC5)c4)c3n2)c1` [Example 57, 7-chloro-2-((2R,4S)-2-(2,5-difluorophenyl)-4-fluoropyrrolidin-1-yl)-8-(1-((S)-pyrrolidin-3-yl)-1H-pyrazol-4-yl)-1,5-naphthyridine], the IC50 on Recombinant human TRKA is less than 1 nM; at Recombinant human TRKB, less than 10 nM; at Recombinant human TRKC, less than 1 nM; in experiment [1] it was less than 1 nM; in experiment [2], less than 10 nM.

On to `Fc1ccc(F)c([C@H]2C[C@H](F)CN2c2ccc3ncnc(-c4cnn(CC5CNC5)c4)c3n2)c1` [Example 59, 4-(1-(azetidin-3-ylmethyl)-1H-pyrazol-4-yl)-6-((2R,4S)-2-(2,5-difluorophenyl)-4-fluoropyrrolidin-1-yl)pyrido[3,2-d]pyrimidine HCOOH salt], for which the half-inhibitory concentration (IC50) is less than 1 nM on Recombinant human TRKA; less than 50 nM on Recombinant human TRKB; less than 1 nM on Recombinant human TRKC; less than 10 nM in experiment [1]; less than 10 nM in experiment [2].

For `Fc1ccc(F)c([C@H]2C[C@H](F)CN2c2ccc3ncc(Cl)c(-c4cnc(N5CCOCC5)s4)c3n2)c1` [Example 61, 4-(5-(3-chloro-6-((2R,4S)-2-(2,5-difluorophenyl)-4-fluoropyrrolidin-1-yl)-1,5-naphthyridin-4-yl)thiazol-2-yl)morpholine], the IC50 on Recombinant human TRKA was less than 10 nM; on Recombinant human TRKB, less than 50 nM; on Recombinant human TRKC, less than 10 nM; in experiment [1] it was less than 50 nM; in experiment [2], less than 10 nM.

For `O[C@H]1CCN(c2ccc(-c3c(Cl)cnc4ccc(N5C[C@@H](F)C[C@@H]5c5cc(F)ccc5F)nc34)cn2)C1` [Example 66, (S)-1-(5-(3-chloro-6-((2R,4S)-2-(2,5-difluorophenyl)-4-fluoropyrrolidin-1-yl)-1,5-naphthyridin-4-yl)pyridin-2-yl)pyrrolidin-3-ol], the IC50 at Recombinant human TRKA was less than 1 nM; at Recombinant human TRKB it was less than 10 nM; on Recombinant human TRKC it was less than 10 nM; in experiment [1] it was less than 10 nM; in experiment [2] it was less than 10 nM.

In the case of `Fc1ccc(F)c([C@H]2C[C@H](F)CN2c2ccc3ncc(Cl)c(-c4cn(C5CCNCC5)nn4)c3n2)c1` [Example 67, 7-chloro-2-((2R,4S)-2-(2,5-difluorophenyl)-4-fluoropyrrolidin-1-yl)-8-(1-(piperidin-4-yl)-2H-1,2,3-triazol-4-yl)-1,5-naphthyridine], the IC50 is less than 1 nM at Recombinant human TRKA; less than 1 nM at Recombinant human TRKB; less than 1 nM at Recombinant human TRKC; less than 10 nM in experiment [1]; less than 10 nM in experiment [2].

Take `O=S(=O)(Nc1ccnc2ccc(N3C[C@@H](F)C[C@@H]3c3cc(F)ccc3F)nc12)N1CC[C@H](O)C1` [Example 69, (S)—N-(6-((2R,4S)-2-(2,5-difluorophenyl)-4-fluoropyrrolidin-1-yl)-1,5-naphthyridin-4-yl)-3-hydroxypyrrolidin-1-sulfonamide]: the concentration for half-maximal inhibition (IC50) was less than 1 nM at Recombinant human TRKA; less than 1 nM on Recombinant human TRKB; less than 1 nM at Recombinant human TRKC; less than 1 nM in experiment [1]; less than 10 nM in experiment [2].

Consider `O[C@H]1CCN(c2cnn(-c3ncnc4ccc(N5C[C@@H](F)C[C@@H]5c5cc(F)ccc5F)nc34)c2)C1` [Example 70, (S)-1-(1-(6-((2R,4S)-2-(2,5-difluorophenyl)-4-fluoropyrrolidin-1-yl)pyrido[3,2-d]pyrimidin-4-yl)-1H-pyrazol-4-yl)pyrrolidin-3-ol], for which the IC50 at Recombinant human TRKA was less than 1 nM; at Recombinant human TRKB, less than 1 nM; on Recombinant human TRKC it was less than 1 nM; in experiment [1] it was less than 10 nM; in experiment [2], less than 10 nM.

Consider `O[C@H]1CCN(c2ncnc3ccc(N4C[C@@H](F)C[C@@H]4c4cc(F)ccc4F)nc23)C1` [Example 71, (S)-1-(6-((2R,4S)-2-(2,5-difluorophenyl)-4-fluoropyrrolidin-1-yl)pyrido[3,2-d]pyrimidine-4-yl)pyrrolidin-3-ol], for which the IC50 at Recombinant human TRKA is less than 1 nM; at Recombinant human TRKB it was less than 1 nM; at Recombinant human TRKC, less than 1 nM; in experiment [1], less than 1 nM; in experiment [2], less than 10 nM.

As for `O[C@H]1CCN(c2ncc(-c3ncnc4ccc(N5C[C@@H](F)C[C@@H]5c5cc(F)ccc5F)nc34)cn2)C1` [Example 72, (S)-1-(5-(6-((2R,4S)-2-(2,5-difluorophenyl)-4-fluoropyrrolidin-1-yl)pyrido[3,2-d]primidin-4-yl)pyrimidin-2-yl)pyrrolidin-3-ol], the IC50 is less than 1 nM at Recombinant human TRKA; less than 1 nM at Recombinant human TRKB; less than 1 nM on Recombinant human TRKC; less than 1 nM in experiment [1]; less than 10 nM in experiment [2].

Consider `Fc1ccc(F)c([C@H]2C[C@H](F)CN2c2ccc3ncc(F)c(-c4noc(C5CCNCC5)n4)c3n2)c1` [Example 73, 3-(6-((2R,4S)-2-(2,5-difluorophenyl)-4-fluoropyrrolidin-1-yl)-3-fluoro-1,5-naphthyridin-4-yl)-5-(piperidin-4-yl)-1,2,4-oxadiazole], for which the concentration for half-maximal inhibition (IC50) at Recombinant human TRKA is less than 1 nM; at Recombinant human TRKB, less than 10 nM; on Recombinant human TRKC it was less than 10 nM; in experiment [1], less than 10 nM; in experiment [2], less than 10 nM.

As to `NC(=O)CN1CCC(n2cc(-c3c(F)cnc4ccc(N5C[C@@H](F)C[C@@H]5c5cc(F)ccc5F)nc34)cn2)CC1` [Example 74, 2-(4-(4-(6-((2R,4S)-2-(2,5-difluorophenyl)-4-fluoropyrrolidin-1-yl)-3-fluoro-1,5-naphthyridin-4-yl)-1H-pyrazol-1-yl)piperidin-1-yl)acetamide], the IC50 at Recombinant human TRKA was less than 1 nM; at Recombinant human TRKB, less than 1 nM; on Recombinant human TRKC, less than 1 nM; in experiment [1], less than 10 nM; in experiment [2] it was less than 10 nM.

`O[C@H]1CCN(c2ccc(-c3ncnc4ccc(N5C[C@@H](F)C[C@@H]5c5cc(F)ccc5F)nc34)cn2)C1` [Example 75, (S)-1-(5-(6-((2R,4S)-2-(2,5-difluorophenyl)-4-fluoropyrrolidin-1-yl)pyrido[3,2-d]pyrimidin-4-yl)pyridin-2-yl)pyrrolidin-3-ol]: the IC50 at Recombinant human TRKA was less than 1 nM; at Recombinant human TRKB, less than 1 nM; at Recombinant human TRKC, less than 1 nM; in experiment [1], less than 1 nM; in experiment [2], less than 10 nM.
